This is an account of results in patent publication US20260102472A1, “SEMAGLUTIDE IN MEDICAL THERAPY” (Novo Nordisk A/S, priority 2023, published 2026).

In this assay the test system is human subjects with established cardiovascular (CV) disease and obesity or overweight. As to the kind of experiment: Randomised, double-blind, placebo-controlled clinical trial of semaglutide in established cardiovascular disease and obesity or overweight (Example 3). The format is in vivo. As to conditions: for Heart failure leading to hospitalisation, Treatment Hazard ratio vs. placebo / Heart failure leading to hospitalisation, Events / Heart failure leading to hospitalisation, Events (%): baseline to end-of-trial (mean duration 39.8 months), 2.4 mg once weekly. As to the method: A randomised, double-blind, international multicentre, placebo-controlled clinical trial with semaglutide was carried out with 17604 human subjects with established cardiovascular (CV) disease and obesity or overweight.
Key inclusion criteria were at least 45 years of age, BMI of at least 27 kg/m^2 and established (CV) disease. Key exclusion criteria were type 1 diabetes or type 2 diabetes.
Subjects were randomised in a 1:1 manner to receive either 2.4 mg semaglutide or placebo once weekly as add-on to standard of care. After randomization, a 16-week dose escalation period followed and then an event driven maintenance period with a mean (+SD) duration of exposure to semaglutide or placebo in the overall trial population of 34.2 (±13.7) months (33.3 (±14.4) months for semaglutide and 35.1 (±13.0) months for placebo). Subjects administered semaglutide initiated treatment with a once-weekly dose of 0.25 mg and followed a fixed dose escalation regimen, with dose increase every 4 weeks (through dosages of 0.5, 1.0, 1.7 mg once weekly), until the 2.4 mg once weekly maintenance dose was reached after 16 weeks.
Results from the clinical trial are presented in Tables 19-20 based on 8803 and 8801 subjects randomised to semaglutide and placebo, respectively. Results from the chronic heart failure (HF) population of the clinical trial are presented in Tables 21-22 based on 2155 and 2131 chronic HF subjects randomised to semaglutide and placebo, respectively. Heart failure leading to hospitalisation was defined as hospital admission for at least 24 hours with a primary diagnosis of heart failure with documented new or worsening symptoms due to heart failure; and objective evidence of new or worsening heart failure (physical findings and/or laboratory evidence or invasive diagnostic evidence); and increased/initiated appropriate treatment. Estimated hazard ratios relative to placebo and two-sided p-values were obtained from a Cox proportional hazards model with randomised treatment as a fixed factor. CI: Confidence interval.

[1] abbreviates: subjects with chronic HF only (2155).

Consider “N-epsilon26-[2-(2-{2-[2-(2-{2-[(S)-4-Carboxy-4-(17-carboxyheptadecanoyl-amino) butyrylamino]ethoxy}ethoxy) acetylamino]ethoxy}ethoxy) acetyl] [Aib8,Arg34] GLP-1-(7-37) [Semaglutide]”, for which the “Heart failure leading to hospitalisation, Treatment Hazard ratio vs. placebo” value is 0.79. In addition, for the setting “8803 subjects”, the “Heart failure leading to hospitalisation, Events” value is recorded as 97 and the “Heart failure leading to hospitalisation, Events (%)” value was 1.1%. The “Heart failure leading to hospitalisation, Treatment Hazard ratio vs. placebo” value (listed as semaglutide) is given as “achieved a reduction”. For the same substance, for the setting “patients with chronic heart failure, statistically significant”, the “Reduction for CV death compared with placebo” value was found to be 24%. Besides, under setting [1], the “Heart failure leading to hospitalisation, Events” value is listed as 61 and the “Heart failure leading to hospitalisation, Events (%)” value is 2.8%. The “Heart failure leading to hospitalisation, Treatment Hazard ratio vs. placebo” value (subjects with chronic HF only) was 0.86. Moreover, the “Heart failure leading to hospitalisation, Treatment Hazard ratio vs. placebo” value (subjects with chronic HF only, listed as semaglutide) is recorded as “achieved a reduction”.
